Key:
Experiment in all cases: relative viability (nuclei count vs DMSO), 5 days (fraction); higher = more cells survive
AZD5582 + Crizotinib = compound: C[C@@H](C(=O)N[C@@H](C1CCCCC1)C(=O)N2CCC[C@H]2C(=O)N[C@@H]3[C@@H](CC4=CC=CC=C34)OCC#CC#CCO[C@@H]5CC6=CC=CC=C6[C@@H]5NC(=O)[C@@H]7CCCN7C(=O)[C@H](C8CCCCC8)NC(=O)[C@H](C)NC)NC [AZD5582] + C[C@@H](Oc1cc(-c2cnn(C3CCNCC3)c2)cnc1N)c1c(Cl)ccc(F)c1Cl [Crizotinib] (partner 1 µM)
Method in brief: (§1)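 Relative viability was taken as the ratio of nuclei in treated wells to nuclei in vehicle wells. Lung cancer cell lines in 1536-well plates received compounds by pin tool one day after seeding, either one drug alone or a fixed anchor-drug dose plus five library-drug doses (not always all listed) in √10 steps. Nuclei were counted on 4× images after 5 days of treatment, and values are medians of duplicate plates.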

[1] = compound: Cn1nnc2c(C(N)=O)ncn2c1=O [Temozolomide] + CC(C)C[C@H](NC(=O)[C@H](Cc1ccccc1)NC(=O)c1cnccn1)B(O)O [Bortezomib] (partner 0.002 µM)
Method in brief: as §1

[2] = compound: Cn1nnc2c(C(N)=O)ncn2c1=O [Temozolomide] + CC1(C)CCC(c2ccc(Cl)cc2)=C(CN2CCN(c3ccc(C(=O)NS(=O)(=O)c4ccc(N[C@H](CCN5CCOCC5)CSc5ccccc5)c(S(=O)(=O)C(F)(F)F)c4)cc3)CC2)C1 [Navitoclax] (partner 0.5 µM)
Method in brief: as §1

Temozolomide + AZD7762 = compound: Cn1nnc2c(C(N)=O)ncn2c1=O [Temozolomide] + NC(=O)Nc1cc(-c2cccc(F)c2)sc1C(=O)N[C@H]1CCCNC1 [AZD7762] (partner 0.2 µM)
Method in brief: as §1

Cell Line: NCI-H1703
- relative viability (AZD5582 + Crizotinib; first compound 0.001581 µM): 0.463
- relative viability (AZD5582 + Crizotinib; first compound 0.005 µM): 0.428
- relative viability (AZD5582 + Crizotinib; first compound 0.01581 µM): 0.59
- relative viability (AZD5582 + Crizotinib; first compound 0.05 µM): 0.459
- relative viability ([1]; first compound 0.2 µM): 0.29
- relative viability ([1]; first compound 0.6325 µM): 0.471
- relative viability ([1]; first compound 2 µM): 0.365
- relative viability ([1]; first compound 6.325 µM): 0.241
- relative viability ([1]; first compound 20 µM): 0.284
- relative viability ([2]; first compound 0.2 µM): 1.21
- relative viability ([2]; first compound 0.6325 µM): 1.2
- relative viability ([2]; first compound 2 µM): 1.28
- relative viability ([2]; first compound 6.325 µM): 0.947
- relative viability ([2]; first compound 20 µM): 1.37
- relative viability (Temozolomide + AZD7762; first compound 0.2 µM): 0.137
- relative viability (Temozolomide + AZD7762; first compound 0.6325 µM): 0.1
- relative viability (Temozolomide + AZD7762; first compound 2 µM): 0.125
- relative viability (Temozolomide + AZD7762; first compound 6.325 µM): 0.147
- relative viability (Temozolomide + AZD7762; first compound 20 µM): 0.107

— the supplement of paper PMC10307832
